# Values of other authors in patent US20130046087A1, “Substituted Cyclodextrin Derivatives Useful As Intermediates For Producing Biologically Active Materials” (Arcarios BV, priority 2010, published 2013).
# Test system: rabbit model of experimental osteoarthritis
# Settings: subcutaneously administered, per Osteoarthritis and Cartilage (2008) 16:986-993
substance,measurement,value
β-cyclodextrin polysulfate,effect on cartilage lesions and osteocyte formation in the affected joints,reduced the cartilage lesions and osteocyte formation
